Measured values: patent US20040014764A1, “N-myristoyltransferase inhibitor compositions and methods of use” (priority 2002, published 2004)
Where two headings read alike, the source gives them in different places.

Legend:
endogenous NMT = assay: N-myr-GFP localization in transfected CV-1 cells (fluorescence microscopy); type: cell-based, monkey
Procedure: Cellular effects of COPP compounds. […] To determine their efficacy in intact cells, a novel assay was developed in which the N-terminus of enhanced green fluorescent protein (GFP) was modified to allow its myristoylation (N-myr-GFP) by endogenous NMT. To begin, the myristoylation sequence […] was added to the N-terminus of green fluorescent protein (N-myr-GFP) using techniques familiar to those practiced in the art. Since GFP is intrinsically fluorescent, the sites of its intracellular distribution can be visualized using fluorescence microscopy. When a plasmid containing the N-myr-GFP sequence is transfected into CV-1 cells, the GFP encoded by this construct is myristoylated by endogenous NMT causing it to localize to the plasma membrane, as indicated by the bright fluorescence at the cell periphery (FIG. 2). […] This method provides evidence that the inhibitors detected in the screen with recombinant NMT can also block endogenous NMT activity in whole cells.

recombinant human NMT [1] = biological target: T1, recombinant human NMT (Homo sapiens, UniProt P30419); assay: NMT screening assay with purified recombinant GST-NMT-1, [3H]-myristoyl-CoA and biotinylated peptide
T1 sequence (P30419 1-496): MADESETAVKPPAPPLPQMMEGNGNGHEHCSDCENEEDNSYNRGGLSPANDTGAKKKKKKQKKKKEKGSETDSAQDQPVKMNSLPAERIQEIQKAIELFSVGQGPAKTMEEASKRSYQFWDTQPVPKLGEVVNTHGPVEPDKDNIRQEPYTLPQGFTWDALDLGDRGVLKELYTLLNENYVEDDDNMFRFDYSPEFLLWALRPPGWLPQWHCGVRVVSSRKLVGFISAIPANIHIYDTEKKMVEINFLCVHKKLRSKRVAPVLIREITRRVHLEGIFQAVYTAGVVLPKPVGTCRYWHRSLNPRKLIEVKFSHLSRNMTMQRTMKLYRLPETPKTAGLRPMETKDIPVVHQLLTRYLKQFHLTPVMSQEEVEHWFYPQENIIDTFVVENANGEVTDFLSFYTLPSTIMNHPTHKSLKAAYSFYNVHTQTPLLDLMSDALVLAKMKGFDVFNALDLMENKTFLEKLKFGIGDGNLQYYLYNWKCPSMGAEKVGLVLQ
Procedure: Development of the NMT screening assay. […] The cDNA encoding enzymatically active human NMT-1 was subcloned into the pGEX bacterial expression evector, producing an NMT-glutathione-S-transferase4 (GST) fusion protein. This protein was expressed in E. coli using methods well known to those trained in the art, purified using a glutathione resin, and stored at −80° C. until use. Enzyme activity was measured using the recombinant NMT, a peptide of the sequence [sequence]-biotin, wherein amino acids are designated by their recognized single letter code and the terminal lysine residue is conjugated with biotin, [^3H]-myristoyl-CoA, and a test compound or the solvent alone (DMSO). Reaction mixtures are incubated for a specific period of time in 96-well plates coated with streptavidin, which may be purchased from commercial sources including Sigma Chemical Company. […] The streptavidin-biotin interaction can then be disrupted with the addition of 0.1 M glycine, pH 2.8, and the solution containing [^3H]myristoyl-peptide can be transferred to scintillation vials. Alternately, determination of the amount of [^3H]myristoyl-peptide in the samples can be determined using scintillation proximity technology according to methods well known to those who practice the art.
Each compound was tested at a final concentration of 5 μg/ml, which corresponds to concentrations of 10-20 μM. Samples that inhibited NMT activity by at least 60% were then deconvoluted, where each of the 8 compounds was analyzed individually.

[2] = tested on: T24 human bladder carcinoma cells; assay: Cytotoxicity assay, sulforhodamine B binding; conditions: T-24, 48 h, read-out: Cytotoxicity IC50
Procedure: To determine the abilities of NMT inhibitors to affect the growth of hyperproliferative cells, cytotoxicity assays were performed using the T24 human bladder carcinoma cell line. […] In these assays, T24 cells growing in tissue culture in the presence of 10% fetal bovine serum are treated with varying concentrations of a test compound for 48 hours. At the end of the treatment period, the number of surviving tumor cells is quantified using any of a variety of methods well known in the field. In these, experiments, the number of surviving cells was determined using the sulforhodamine B binding assay.

[3] = tested on: panel of human tumor cell lines; assay: Proliferation of a panel of human tumor cell lines (summary); type: cell-based; conditions: range over the 8 cell lines of TABLE 3, read-out: IC50s across the tumor cell line panel
Procedure: (§1) Antiproliferative effects of compound 537.
(§2) Additionally, the effects of compound 537 on the proliferation of a panel of human tumor cell lines were determined. […] Of interest, colon-derived HT29 cells were most sensitive to compound 537, and previous work has indicated a close association of activation of Src (which requires myristoylation for activity) and colon cancer (Raju et al., Exp. Cell Res. 235: 145 (1997)).

HT29 = assay: Antiproliferative activity toward human tumor cell lines; type: cell-based; conditions: HT-29, HT29, Colon, mean ± SEM of 4 experiments
Procedure: as §1, §2

DU145 = assay: as above; type: cell-based; conditions: DU-145, DU145, Prostate, mean ± SEM of 4 experiments
Procedure: as §1, §2

A-498 = assay: as above; type: cell-based; conditions: A498, A-498, Kidney, mean ± SEM of 4 experiments
Procedure: as §1, §2

Panc-1 = assay: as above; type: cell-based; conditions: Panc-1, Pancreas, mean ± SEM of 4 experiments
Procedure: as §1, §2

HepG2 = assay: as above; type: cell-based; conditions: HepG2, Liver, mean ± SEM of 4 experiments
Procedure: as §1, §2

MCF-7 = assay: as above; type: cell-based; conditions: MCF7, MCF-7, Breast, mean ± SEM of 4 experiments
Procedure: as §1, §2

MDA-MB-231 = assay: as above; type: cell-based; conditions: MDA-MB-231, Breast, mean ± SEM of 4 experiments
Procedure: as §1, §2

SKOV3 = assay: as above; type: cell-based; conditions: SK-OV-3, SKOV3, Ovary, mean ± SEM of 4 experiments
Procedure: as §1, §2

GST-hNMT-1 = biological target: T2, GST-hNMT-1 (Homo sapiens, UniProt P30419); assay: Peptide and myristoyl-CoA substrate competition experiments (Michaelis-Menten); type: biochemical
T2 construct: made in house; host or cells: E. coli
T2 sequence (P30419 1-496): T1 sequence (P30419 1-496)
Procedure: Development of the NMT screening assay.
Mechanism of inhibition of NMT by COPP compounds. The mechanism of inhibition by compound 537 was examined using peptide and myristoyl-CoA substrate competition experiments with GST-hNMT-l. In the absence of inhibitor, the KM for myristoyl-CoA compares very well with the literature value of 2.6 μM (Rocque et al., J Biol. Chem. 268: 9964 (1993)). […] However, it is well established that the affinity for the peptide is highly sequence-sensitive, so that KMS >100 μM are not unusual. For studies of the ability of compound 537 to interact with the peptide-binding site of NMT, the peptide concentration was varied from 0 to 500 μM, while the myristoyl-CoA concentration was kept constant in the assays. The presence of compound 537 at its IC50 concentration […] the KM for the peptide relative to the solvent control. […] To determine the effects of compound 537 on the myristoyl-CoA binding site, the concentration of myristoyl-CoA was varied from 0 to 100 μM, while the peptide concentration was held constant in the assays. […] Overall, these kinetic analyses indicate that compound 537, and most likely the rest of the COPP family, inhibit NMT activity by competing with the substrate peptide for binding to the enzyme.

recombinant human NMT [4] = biological target: T1, recombinant human NMT; set-up: made in house; host or cells: E. coli; conditions: published value (Boutin et al. 1991); read-out: published IC50 concentration for NMT; cited from earlier work

Compound	IC50 (recombinant human NMT [1])	IC50 [2]	other results
CCCCCCCCCCCCC(O)C(=O)O (stereo not drawn) [2-hydroxymyristic acid, reference compound]	–	–	intracellular distribution of N-myr-GFP (endogenous NMT; millimolar concentrations): redistribution of GFP to the cytosol
COc1ccc(CN2CCN3CCCC3C2C2CCCCC2)cc1 (stereo not drawn) [Compound 486]	419 ± 30 µM	8.1 µM	–
c1cncc(N2CCN3CCCC3C2C2CCCCC2)c1 (stereo not drawn) [Compound 522]	590 ± 127 µM	400 µM	–
CCn1c2ccccc2c2cc(CN3CCN4CCCC4C3C3CCCCC3)ccc21 (stereo not drawn) [Compound 537]	6 µM	1.8 µM	IC50 [3]: 3.7 to 14.8 µM; IC50 (HT29): 3.7 ± 0.6 µM; IC50 (DU145): 14.8 ± 2.9 µM; IC50 (A-498): 5.8 ± 1.4 µM; IC50 (Panc-1): 12.6 ± 1.3 µM; IC50 (HepG2): 4.4 ± 1.2 µM; IC50 (MCF-7): 8 ± 0.9 µM; IC50 (MDA-MB-231): 11.9 ± 1.3 µM; IC50 (SKOV3): 13.2 ± 3.6 µM; intracellular distribution of N-myr-GFP (endogenous NMT; micromolar concentrations): displacement of N-myr-GFP to the cytosol; Peptide Vmax (GST-hNMT-1; in presence of compound at its IC50 concentration, peptide varied 0 to 500 μM, myristoyl-CoA constant): 0.076 ± 0.006 pmol/min; Myristoyl-CoA Vmax (GST-hNMT-1; in presence of compound, myristoyl-CoA varied 0 to 100 μM, peptide constant): 0.034 ± 0.001 pmol/min; mechanism of inhibition with respect to the lipid substrate (GST-hNMT-1; myristoyl-CoA competition): noncompetitive inhibitor; mechanism of inhibition with respect to the peptide substrate (GST-hNMT-1; peptide competition): competitive inhibitor
c1ccc2cc(N3CCN4CCCC4C3C3CCCCC3)ccc2c1 (stereo not drawn) [Compound 542]	42 ± 5 µM	1.3 µM	–
Brc1csc(CN2CCN3CCCC3C2C2CCCCC2)c1 (stereo not drawn) [Compound 555]	> 8000 µM	1.2 µM	–
Cc1ccc2occ(CN3CCN4CCCC4C3C3CCCCC3)c(=O)c2c1 (stereo not drawn) [Compound 591]	> 8000 µM	9.7 µM	–
O=[N+]([O-])c1ccccc1-c1ccc(CN2CCN3CCCC3C2C2CCCCC2)o1 (stereo not drawn) [Compound 615]	45 ± 2 µM	1.4 µM	–
O=[N+]([O-])c1cccc(-c2ccc(CN3CCN4CCCC4C3C3CCCCC3)o2)c1 (stereo not drawn) [Compound 616]	41 ± 1 µM	2.1 µM	–
O=[N+]([O-])c1ccc(-c2ccc(CN3CCN4CCCC4C3C3CCCCC3)o2)cc1 (stereo not drawn) [Compound 617]	36 ± 4 µM	4.6 µM	–
COc1ccc(CN2CCN3CCCC3C2C2CCCCC2)c2ccccc12 (stereo not drawn) [Compound 621]	35 ± 5 µM	0.7 µM	–
COc1ccc2ccccc2c1CN1CCN2CCCC2C1C1CCCCC1 (stereo not drawn) [Compound 622]	28 ± 8 µM	1.5 µM	–
C1CCC(C2C3CCCN3CCN2C2CCCCC2)CC1 (stereo not drawn) [Compound 624]	113 ± 7 µM	1.6 µM	–
c1cc2ccc3ccc(CN4CCN5CCCC5C4C4CCCCC4)c4ccc(c1)c2c34 (stereo not drawn) [Compound 629]	70 ± 8 µM	3 µM	–
CC1=C(CCN2CCN3CCCC3C2C2CCCCC2)C(C)(C)CCC1 (stereo not drawn) [Compound 638]	43 ± 4 µM	1.4 µM	–
COc1ccccc1/C=C/CN1CCN2CCCC2C1C1CCCCC1 (stereo not drawn) [Compound 640]	1600 ± 200 µM	2.8 µM	–
CC1C2CCCN2CCN1Cc1cccc(Oc2ccc(Cl)cc2)c1 (stereo not drawn) [Compound 726, 2-[3-(4-chloro-phenoxy)-benzyl]-1-methyl-octahydro-pyrrolo[1,2-a]pyrazine]	40 ± 6 µM	1.5 µM	–
CC1C2CCCN2CCN1Cc1c2ccccc2c(Cl)c2ccccc12 (stereo not drawn) [Compound 766]	47 ± 7 µM	4.2 µM	–
CCCCCCCCCCCCCC(=O)N[C@@H](Cc1ccccc1)C(=O)O [myristoylphenylalanine, reference compound]	–	–	IC50 (recombinant human NMT [4]): 100 µM; inhibition at 100 µM (recombinant human NMT [1]; read-out: inhibition of recombinant human NMT): ~50%
